How the values were obtained:
Format in all cases: in vivo, mouse
[1] = system: Ts65Dn mice
Method: (§1) A 4-week longitudinal crossover study is carried out following the method outlined by Fernandez et al., supra. Wild-type and Ts65Dn mice (3-4 months of age) are randomly assigned to groups receiving daily i.p. injections of saline or flumazenil (1.0 mg/kg), and are submitted to four weekly repetitions of object recognition testing, in which the animals are serially presented with four different object sets. At the 2-week midpoint of the experimental period, wild-type and Ts65Dn mice that have been receiving saline are randomly segregated into groups that either continue to receive daily saline injections or begin to receive daily injections of flumazenil. Conversely, wild-type and Ts65Dn mice that have been chronically administered flumazenil in the first 2 weeks of testing are switched onto a saline regimen. Alongside saline and flumazenil, bilobalide (i.p. 5.0 mg/kg) may be evaluated as a positive control. Bilobalide is a picrotoxin-like compound that may safely be administered for the whole 4-week experiment.
(§2) Flumazenil may also be tested for its effects on declarative memory in the novel object recognition test and in a modified spontaneous alternation task. Wild-type and Ts65Dn mice may be administered flumazenil (3 mg/kg in milk via voluntary oral feeding or 1 mg/kg i.p.). The wild-type and Ts65Dn mice are administered from 5 to 30 doses of milk or milk-flumazenil (or saline or flumazenil solution i.p.). The mice are then subjected to two repetitions of novel object recognition testing or three daily T-maze sessions at the tail end of the treatment regimen. […] Comparison of treated and untreated Ts65Dn mice will provide controls for any possible arm bias in the spontaneous alternation task.
as §1, with “bretazenil” for “flumazenil”, “bretazenil.” for “flumazenil.”, “bretazenil,” for “flumazenil,”
as §2, with “Bretazenil may” for “Flumazenil may”, “administered bretazenil” for “administered flumazenil”

[2] = system: Ts65Dn mice; experiment: Long-term potentiation (LTP) in the dentate gyrus of Ts65Dn mice (paper Examples 1 and 2); conditions: about 1 month after cessation of drug treatment
Excerpt: Since the ability of animals to learn and remember is thought to be encoded at the synaptic level, and involves the ability of synapses to undergo long-term changes in synapse strength, long-term potentiation (LTP) in the dentate gyrus may be evaluated.

[3] = system: WT and Ts65Dn mice; experiment: Open-field locomotor assay (LMA), 30 min session; conditions: WT and Ts65Dn mice
Method: Following baseline determinations and group assignments, WT and Ts65Dn mice received intraperitoneal (i.p.) injections once/day (08:00) for the two-week duration of the drug treatment regimen (FIG. 1). Drugs were dissolved in physiological saline. Two drops of Tween 80 were used to facilitate solution formation for flumazenil. Picrotoxin was initially made up at 50× concentration in 20% ethanol and then diluted down to a […] solution with 0.4% ETOH in saline. Doses of drugs were based on previous behavioral research in mice (1 mg/kg for PTX and 10 mg/kg for flumazenil). Injections were given in a volume of 10 ml/kg. A vehicle control was run along side the treatment groups (0.4% ETOH in saline).
FIG. 1 graphically depicts the protocol. After habituation to the animal facility, mice were tested for baseline behaviors in the open-field locomotor assay (LMA)(30 min session) and the novel object recognition assay. Primary experimental groups were divided by genotype (Ts65Dn mice and wild-type control littermates). These two groups were further divided into drug treatments (vehicle, PTX and flumazenil) with a targeted n-size of 8 mice/group (24 WT and 24 Ts65Dn mice total). The group assignments were made in a semi-random process due to constraints in animal availability (staggered shipping) and choice of initial treatment groups (e-mail documentation between Bilsky laboratory and Cypress Bioscience on file). Daily morning injections began on Day 1 and went through the morning of Day 14. On Days 7/8 and 14/15 (13:00) mice were tested in the behavioral assay. Mice were kept for an additional two weeks and re-tested on Days 21/22 and 28/29 to assess the duration of the drug treatment effect.
General levels of arousal, locomotor activity and anxiety were assessed using an automated open-field activity monitoring system (Coulbourn Instruments with TruScan software). The open field test that were run were fully automated assays that quantified many different aspects and patterns of movement, including total distance traveled, time spent moving, rearing, and various stereotypic patterns of activity. The software calculates the time spent in the middle portions of the open field versus the outer zones alongside the outside walls. These variables can be used as one measure of general anxiety levels.
Mice were placed into an open field (26 cm×26 cm) in a brightly lit room. Two sensor rings (x-y plane and a vertical z plane) generate an array of infrared beams that surround the chamber. The pattern of beam breaks was recorded and the data fed into a personal computer. The TruScan software interpreted the beam breaks to calculate the movement variables and patterns of activity, with a temporal resolution of 100 msec. A 30 minutes session was used for assessment of the mice on Day 0 (Baseline) and then on Days 1, 7, 14, 21 and 28. Data were exported into an Excel spreadsheet, graphed and analyzed using parametric and non-parametric statistics.

In the case of `CCOC(=O)c1ncn2c1CN(C)C(=O)c1cc(F)ccc1-2` [flumazenil, 8-fluoro-5,6-dihydro-5-methyl-6-oxo-4H-imidazo[1,5-a]benzodiazepine-3-carboxylic acid ethyl ester], the object recognition performance ([1]; 4-week crossover, flumazenil or bretazenil 1.0 mg/kg i.p. for 2 weeks, bilobalide 5.0 mg/kg i.p. throughout) was “normalized object recognition performance”, the “discrimination indices in the object recognition task” value ([1]; 5 to 30 doses, 3 mg/kg in milk orally or 1 mg/kg i.p.) was “on a par with those of wild-type mice” and the “novel object recognition testing, long term” value ([1]; up to at least 2 months after treatment, treated for at least about 15 days) was “long-term improvement”. The “LTP in the dentate gyrus” value [2] was “Normalized LTP”, the LMA vertical rearing ([3]; PTX during drug administration phases, flumazenil over the 4 week testing regimen) was “least effect” and the “LMA marginal distance traveled” value ([3]; across sessions, PTX 1 mg/kg, flumazenil 10 mg/kg i.p.) was “very little habituation across sessions”.
